The values below come from patent publication US20250122479A1, “GENERATION OF LUNG ORGANOIDS FROM PLURIPOTENT STEM CELLS AND USE THEREOF” (THE TRUSTEES OF COLUMBIA UNIVERSITY IN THE CITY OF NEW YORK, priority 2022, published 2025).

Holding throughout (format): cell-based, human
For data set [1], the system named is TLOs. Put plainly: CHIR withdrawal from TLOs cultured in CK-DCI. The note with it: 1 to 5 days after withdrawal of CHIR; Ki67, cCASP3, AT2 marker RT-PCR. On the procedure: As removing WNT signaling has been reported to induce AT2 maturation in alveolospheres,^26,27 we withdrew CHIR.
Matrigel embedded lung organoids can be used for TLO generation when they reach d42 of development. Media was removed from the transwell and 1 ml of 2 mg/ml dispase (Corning) was added to release lung organoid from the Matrigel for 30-45 minutes in normoxic incubator. The organoid was transferred to a 15 ml conical tube and washed with stop media (DMEM (Corning), 5% FBS (Atlanta Biologicals; Flowery Branch, Georgia), 1% Glutamax (ThermoFisher)) to neutralize Dispase, then centrifuged at […] for 5 minutes. The pellet was incubated with 1 ml of 0.05% Trypsin/EDTA in normoxic incubator for 10-12 minutes with occasional pipetting with a P1000 pipet tip. Single cell dissociation was verified using a bright field microscope. If a single cell suspension was not obtained after 12 minutes, cells were washed with stop media and incubated for additional 5 minutes with 0.05% Trypsin/EDTA. Cells were counted using a hemocytometer and 400 cells/μl of undiluted Matrigel were plated in a well of a 12-well non-tissue culture plate. […]

Data set [2] deals with TLOs. Put plainly: Distal differentiation of TLOs (removal of CHIR and KGF, TGF-b blockade with SB). The note with it: removing CHIR and KGF and blocking TGF-b signaling using SB (DCI+SB). On the procedure:
We next used empirical approaches to differentiate the cells into more mature proximal of distal lineages.
(§1) Total RNA was extracted according to manufacturer's instructions using the Direct-zol™ RNA Microprep (Zymo Research, Irvine, CA), and 500 ng of total RNA was reverse transcribed using the qScript™ XLT cDNA SuperMix (Quantabio, Beverly, MA). Technical triplicates of […] reaction (for use in Applied Biosystems QuantStudio7 384-well System, Waltham, MA) were prepared with 3 μl of diluted cDNA and run for 40 cycles. Relative gene expression was calculated based on the average cycle (Ct) value, normalized to GAPDH as the internal control and reported as fold change (2(−ddCT)).

Another data set has as its system WT (R2) TLO. Kind of data set: ER stress induction by tunicamycin, WT TLOs. The note with it: one week after removal of tunicamycin (5 hour challenge). On the procedure:
(§2) We challenged for 5 hours with tunicamycin, a protein glycosylation inhibitor that prevents protein maturation and causes ER stress.^65 and measured ER stress components after 5 hrs, upon removal tunicamycin, and after 1 week (FIG. 7b). […] Of particular interest is ATF4, as ATF4 is an effector protein implicated not only in the UPR^ER via PERK phosphorylation but also in the integrated stress response (ISR)^66.
as §1

Data set [3] deals with HPS1−/− TLOs. Put plainly: ER stress induction by tunicamycin, HPS1-/- TLOs. On the procedure: as §2, §1
The next data set deals with ABCA3−/− TLOs. Kind of data set: ER stress induction by tunicamycin, ABCA3-/- TLOs. The note with it: one week after removal of tunicamycin; compared with HPS1−/− TLOs. On the procedure:
as §2, §1

Data set [4] has as its system HPS1−/− TLOs. The note with it: one week after removal of tunicamycin. On the procedure:
as §2

For `Cc1c[nH]c(-c2cnc(NCCNc3ccc(C#N)cn3)nc2-c2ccc(Cl)cc2Cl)n1` [CHIR, CHIR99021], the “effect of CHIR withdrawal on TLOs” value in the data set on TLOs [1] was “disintegration, proliferation arrest (FIG. 3b), apoptosis (FIG. 3c) and loss of AT2 markers”.

Take `NC(=O)c1ccc(-c2nc(-c3ccc4c(c3)OCO4)c(-c3ccccn3)[nH]2)cc1` [SB, SB431542]: the “expression of AT2 and AT1 markers” value with TLOs [2] is “further upregulation of not only AT2, but also of AT1 markers”.

As to tunicamycin, the “expression of ER stress mediators (XBP1, BIP, CHOP, ATF4)” value in the data set with WT (R2) TLO was “expression of BIP, CHOP and ATF4 were strikingly increased”. Besides, the “expression of ER stress mediators (BIP, XBP1 splicing)” value with HPS1−/− TLOs [3] (after 5 hrs tunicamycin challenge) is “significantly increased expression of BIP and of XBP1 splicing”. Moreover, in the data set with HPS1−/− TLOs [3] (one week after removal of tunicamycin (5 hour challenge)), the “expression of ER stress mediators (XBP1 splicing, CHOP, ATF4)” value is “maintained elevated splicing of XBP1 but entirely failed to upregulate CHOP and ATF4”. In the data set with ABCA3−/− TLOs, the “expression of ER stress mediators” value was “A similar response, though less pronounced”. The apoptosis result in the data set on HPS1−/− TLOs [4] is on record as “increased apoptosis”.
